According to ChEMBL document CHEMBL1137093, “Synthesis, receptor binding and functional studies of mesoridazine stereoisomers” (Bioorg Med Chem Lett, 2004):
“And” between values parts separate entries of the source, which are not always exact repeats. Equal values may be shown once.

Legend:
[1] = target: T1, D(1A) dopamine receptor (Homo sapiens, UniProt P21728); assay: Antagonism of D1 dopamine receptor of human was determined in C6D1 low-density cells by using cyclic AMP assay
[2] = Antagonism was determined as concentration required to inhibit quinpirole-induced mitogenesis in CHOp cells
[3] = target: T2, 5-hydroxytryptamine receptor 2A (Rattus norvegicus, UniProt P14842); assay: Binding affinity towards rat 5-hydroxytryptamine 2A receptor was determined by using [3H]-ketanserin as radioligand
[4] = target: T3, 5-hydroxytryptamine receptor 1A (Homo sapiens, UniProt P08908); assay: Binding affinity towards human 5-hydroxytryptamine 1A receptor was determined by using [3H]8-OH-DPAT as radioligand
T3 sequence (P08908 whole entry): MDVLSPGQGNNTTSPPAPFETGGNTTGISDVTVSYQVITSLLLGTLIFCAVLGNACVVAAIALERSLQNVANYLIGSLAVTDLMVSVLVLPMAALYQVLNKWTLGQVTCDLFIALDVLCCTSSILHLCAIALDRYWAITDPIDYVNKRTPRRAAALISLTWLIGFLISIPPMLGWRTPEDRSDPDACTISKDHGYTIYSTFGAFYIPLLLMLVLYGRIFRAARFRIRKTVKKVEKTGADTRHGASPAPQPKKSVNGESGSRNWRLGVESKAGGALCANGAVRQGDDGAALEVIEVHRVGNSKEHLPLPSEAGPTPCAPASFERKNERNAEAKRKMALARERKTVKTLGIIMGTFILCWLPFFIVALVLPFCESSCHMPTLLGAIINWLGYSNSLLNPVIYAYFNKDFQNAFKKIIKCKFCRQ

[5] = target: T4, 5-hydroxytryptamine receptor 2C (Rattus norvegicus, UniProt P08909); assay: Binding affinity towards rat 5-hydroxytryptamine 2C receptor was determined by using [3H]mesulergine as radioligand
T4 sequence (P08909 whole entry): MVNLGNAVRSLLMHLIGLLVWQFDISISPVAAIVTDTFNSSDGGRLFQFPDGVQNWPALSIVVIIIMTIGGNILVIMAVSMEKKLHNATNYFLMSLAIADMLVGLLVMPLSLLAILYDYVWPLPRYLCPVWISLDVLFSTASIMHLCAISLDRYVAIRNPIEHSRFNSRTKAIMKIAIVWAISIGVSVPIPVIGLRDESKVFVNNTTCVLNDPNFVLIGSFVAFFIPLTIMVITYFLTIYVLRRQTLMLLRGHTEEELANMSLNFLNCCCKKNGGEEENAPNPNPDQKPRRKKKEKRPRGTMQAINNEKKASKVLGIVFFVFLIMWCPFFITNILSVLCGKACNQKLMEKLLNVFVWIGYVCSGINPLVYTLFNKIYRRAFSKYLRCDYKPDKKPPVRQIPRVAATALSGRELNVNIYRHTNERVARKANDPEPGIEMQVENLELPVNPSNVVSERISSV

[6] = target: T1, D(1A) dopamine receptor
Description: Binding affinity towards human D1 dopamine receptor was determined by using [3H]-SCH- 23390 as radioligand

[7] = target: T5, D(2) dopamine receptor (Homo sapiens, UniProt P14416)
Description: Binding affinity towards human D2 dopamine receptor was determined by using [3H]YM-09151-2 as radioligand

[8] = target: D(3) dopamine receptor (Homo sapiens, UniProt P35462)
Description: Binding affinity towards human D3 dopamine receptor was determined by using [3H]YM-09151-2 as radioligand

[9] = target: T2, 5-hydroxytryptamine receptor 2A; assay: Antagonism of 5-hydroxytryptamine 2A receptor was determined using rat aortal strip contraction assay
[10] = target: T5, D(2) dopamine receptor; remark: listed apart in the source
[11] = target: T5, D(2) dopamine receptor; remark: listed apart in the source
Description: High binding affinity towards human D2 dopamine receptor was determined by using [3H]YM-09151-2 as radioligand

[12] = target: T5, D(2) dopamine receptor; remark: listed apart in the source
Description: Concentration required to inhibit [3H]YM-09151-2 binding to human D2 dopamine receptor

[13] = target: 5-hydroxytryptamine receptor 2A (Rattus norvegicus) (UniProt P14842)
Sequence of 5-hydroxytryptamine receptor 2A (Rattus norvegicus) (P14842 whole entry): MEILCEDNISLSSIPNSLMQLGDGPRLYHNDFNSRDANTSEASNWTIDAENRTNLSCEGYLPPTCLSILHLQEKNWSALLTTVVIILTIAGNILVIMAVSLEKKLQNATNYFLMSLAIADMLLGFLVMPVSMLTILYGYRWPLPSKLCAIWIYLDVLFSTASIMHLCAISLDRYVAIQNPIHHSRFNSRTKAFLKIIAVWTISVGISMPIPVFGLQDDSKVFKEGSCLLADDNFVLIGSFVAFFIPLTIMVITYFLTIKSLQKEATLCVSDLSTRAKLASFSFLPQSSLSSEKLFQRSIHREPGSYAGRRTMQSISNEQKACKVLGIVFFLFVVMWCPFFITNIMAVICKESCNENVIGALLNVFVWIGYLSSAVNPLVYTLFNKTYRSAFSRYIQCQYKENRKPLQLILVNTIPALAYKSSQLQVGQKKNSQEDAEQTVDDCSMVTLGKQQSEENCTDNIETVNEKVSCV

T2 sequence (P14842 whole entry): as above
Sequence of D(3) dopamine receptor (P35462 whole entry): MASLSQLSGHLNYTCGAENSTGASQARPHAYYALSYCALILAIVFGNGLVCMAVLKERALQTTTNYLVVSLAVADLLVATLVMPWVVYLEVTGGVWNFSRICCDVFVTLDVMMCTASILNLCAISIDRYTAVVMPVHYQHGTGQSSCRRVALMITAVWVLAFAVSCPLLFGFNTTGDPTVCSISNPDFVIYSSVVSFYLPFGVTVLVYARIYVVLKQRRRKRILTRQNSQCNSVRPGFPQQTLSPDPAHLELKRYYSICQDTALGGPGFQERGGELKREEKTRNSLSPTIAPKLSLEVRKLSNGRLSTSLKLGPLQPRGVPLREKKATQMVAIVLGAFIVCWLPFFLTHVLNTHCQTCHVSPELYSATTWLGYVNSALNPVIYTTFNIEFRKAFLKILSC
T1 sequence (P21728 whole entry): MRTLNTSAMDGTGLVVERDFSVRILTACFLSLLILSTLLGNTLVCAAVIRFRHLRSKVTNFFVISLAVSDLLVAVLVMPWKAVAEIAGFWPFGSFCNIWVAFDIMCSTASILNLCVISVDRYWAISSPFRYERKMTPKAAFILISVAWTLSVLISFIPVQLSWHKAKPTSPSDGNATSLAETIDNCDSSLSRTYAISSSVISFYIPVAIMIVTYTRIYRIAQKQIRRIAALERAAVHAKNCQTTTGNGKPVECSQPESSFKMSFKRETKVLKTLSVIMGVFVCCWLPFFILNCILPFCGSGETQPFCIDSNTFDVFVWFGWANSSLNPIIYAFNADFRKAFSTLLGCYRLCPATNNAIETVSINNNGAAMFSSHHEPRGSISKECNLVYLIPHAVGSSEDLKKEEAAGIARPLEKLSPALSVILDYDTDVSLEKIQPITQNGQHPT
T5 sequence (P14416 whole entry): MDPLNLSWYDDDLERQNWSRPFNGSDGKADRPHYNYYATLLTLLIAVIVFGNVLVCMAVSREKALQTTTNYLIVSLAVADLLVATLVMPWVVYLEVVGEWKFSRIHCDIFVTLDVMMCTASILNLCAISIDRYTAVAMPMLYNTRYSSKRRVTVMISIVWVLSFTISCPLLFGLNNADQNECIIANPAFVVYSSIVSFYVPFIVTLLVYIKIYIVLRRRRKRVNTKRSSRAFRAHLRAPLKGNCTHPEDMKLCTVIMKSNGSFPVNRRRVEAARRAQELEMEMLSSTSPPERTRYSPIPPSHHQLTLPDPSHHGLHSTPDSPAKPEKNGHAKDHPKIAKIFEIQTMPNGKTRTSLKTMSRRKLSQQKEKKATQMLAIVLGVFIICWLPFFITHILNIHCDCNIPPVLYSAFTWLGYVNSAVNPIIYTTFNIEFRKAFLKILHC

Compound	IC50 [1] [nM]	IC50 [2]	Ki [3] [nM]	Ki [4] [nM]	Ki [5] [nM]	Ki [6] [nM]	Ki [7] [nM]	Ki [8] [nM]	Kb [9] [nM]	Ki [10] [nM]	Ki [11] [nM]	IC50 [12] [nM]	Ke [13] [nM]
CN1CCCC[C@H]1CCN1c2ccccc2Sc2ccc([S@](C)=O)cc21	1250	232 nM and 408 nM	414	395	410	620	426	197					
CN1CCCC[C@@H]1CCN1c2ccccc2Sc2ccc([S@@](C)=O)cc21	460	4 nM and 16 nM	19	64	112	317		26	2.51	1840	1.2	63	2.5
CN1CCCCC1CCN1c2ccccc2Sc2ccc([S+](C)[O-])cc21 (single isomer, unassigned; 2) [listing 1 of 2 here]	137	10 nM and 35 nM	55	105	412	103		23	6.31	1540	2.2	77	
CN1CCCCC1CCN1c2ccccc2Sc2ccc([S+](C)[O-])cc21 (single isomer, unassigned; 2) [listing 2 of 2 here]													7
CN1CCCCC1CCN1c2ccccc2Sc2ccc([S+](C)[O-])cc21 (single isomer, unassigned; 3) [listing 1 of 2 here]		161 nM and 256 nM	112	349	704	1960	304	95	25.1			837	
CN1CCCCC1CCN1c2ccccc2Sc2ccc([S+](C)[O-])cc21 (single isomer, unassigned; 3) [listing 2 of 2 here]													28
